{"source": "patent US20100041089A1", "about": "“IMPROVED METHOD FOR DETECTING CHEMICAL […]” (priority 2006, published 2010)", "tested_on": "yeast genes (expressed mRNA)", "experiment": "DNA chip measurement of expressed mRNA of yeast genes after culture with a toxic chemical substance", "type": "cell-based, Saccharomyces cerevisiae S288C", "experimental": "Yeast (Saccharomyces cerevisiae S288C (a SUC2mal mel gap2 CUP1)) were cultured at 25° C. on YPD medium (yeast extract 1%, polypeptone 2%, glucose 2%). One of toxic chemical substances was added to the cell at logarithmic growth phase, and the cell was further cultured for two hours. Cell was cultured without any chemical substance in the same condition, and was used as a control. Concentrations of the chemical substances were defined to inhibit the growth of the yeast but not lead to death.\nAfter the completion of cultivation, the culture was centrifuged to collect the cells. To the cells, sodium acetate buffer (50 mM sodium acetate, 10 mM EDTA, 1% SDS) was added, and the mixture was shaken at 65° C. for five minutes, followed by returning to room temperature, and obtaining the supernatant, which procedure was repeated two times. To the supernatant, ½ amount of a solution of phenol/chloroform (1:1) was added, and the mixture was centrifuged to give a supernatant, an equal amount of chloroform was added, and the mixture was centrifuged to give a supernatant. To the supernatant, an equal amount of isopropanol containing 0.3 M sodium acetate was added, and the mixture was allowed to stand at room temperature for 30 minutes, after which the mixture was centrifuged to give sediment of the whole RNAs. Seventy % ethanol was added to the sediment, and the mixture was again centrifuged to give sediment, which was then dried and dissolved in water. mRNA was isolated from the whole RNAs as followings. In view of the fact that a poly A chain is attached to the 3′ terminus of mRNA, a polynucleotide having a poly T structure which was immobilized on the surface of latex beads was used to trap the mRNA, and then the mRNA was washed and eluted with spine column (Oligotex-dT30<Super>mRNA Purification Kit, Takara). Reverse transcription of the mRNA was conducted with a reverse transcriptase (Super Script II Reverse Transcriptase; catalogue No. 18064-014, GibcoBRL) using fluorescence-labeled nucleotides to give cDNAs that were introduced with Cy3-dUTP or Cy5-dUTP during the reverse transcription.\nThe labeled cDNAs were dissolved in TE buffer (10 mM Tris-HCl/1 mM EDTA, pH 8.0), and the solution was dropped on the DNA chip containing the whole genes of yeast (DNA Chip Research Inc. Japan) so that the cDNAs were hybridized on the DNA chip at 65° C. for over 12 hours. The fluoresces intensity of the DNA chip was read with a scanner, and the ratio relative to the fluorescence intensity resulting from the absence of chemical substance was estimated as the following, which is shown in Tables 1 to 9.\nIn the Tables, “Intensity” indicated in the rightmost column is a value of the level of expressed mRNA of each gene in control cells as divided by the average level of the expressions of the whole genes. A gene of which mRNA level is lower in control, and is higher in cases of addition of chemical substance, is especially useful in the detection of toxic substances.\nHere, when a ratio of an amount of mRNA expressed in the presence of the chemical substance to an amount of mRNA expressed in the absence of the chemical substance is two or more, then it is considered significant."}
{"smiles": "CCCCCCCCCCCCOS(=O)(=O)[O-].[Na+]", "note": "[(18), Sodium lauryl sulfate]", "values": [{"measurement": "The level of expressed mRNA in the presence of chemical substance/The level of expressed mRNA in the absence of chemical substance", "setting": "yeast gene YAL053W, cultured two hours with substance", "result": 1.6}, {"measurement": "The level of expressed mRNA in the presence of chemical substance/The level of expressed mRNA in the absence of chemical substance", "setting": "yeast gene YAR028W, cultured two hours with substance", "result": 2.1}, {"measurement": "The level of expressed mRNA in the presence of chemical substance/The level of expressed mRNA in the absence of chemical substance", "setting": "yeast gene YAR031W, cultured two hours with substance", "result": 2.5}, {"measurement": "The level of expressed mRNA in the presence of chemical substance/The level of expressed mRNA in the absence of chemical substance", "setting": "yeast gene YBL048W, cultured two hours with substance", "result": 1.0}, {"measurement": "The level of expressed mRNA in the presence of chemical substance/The level of expressed mRNA in the absence of chemical substance", "setting": "yeast gene YBL057C, cultured two hours with substance", "result": 1.2}, {"measurement": "The level of expressed mRNA in the presence of chemical substance/The level of expressed mRNA in the absence of chemical substance", "setting": "yeast gene YBL107C, cultured two hours with substance", "result": 1.4}, {"measurement": "The level of expressed mRNA in the presence of chemical substance/The level of expressed mRNA in the absence of chemical substance", "setting": "yeast gene YBR005W, cultured two hours with the substance", "result": 4.6}, {"measurement": "The level of expressed mRNA in the presence of chemical substance/The level of expressed mRNA in the absence of chemical substance", "setting": "yeast gene YCL035C (detoxification protein gene)", "result": 4.2}, {"measurement": "The level of expressed mRNA in the presence of chemical substance/The level of expressed mRNA in the absence of chemical substance", "setting": "yeast gene YCL035C (stress protein genes)", "result": 4.2}, {"measurement": "The level of expressed mRNA in the presence of chemical substance/The level of expressed mRNA in the absence of chemical substance", "setting": "yeast gene YCR015C, cultured two hours with the chemical substance", "result": 1.2}, {"measurement": "The level of expressed mRNA in the presence of chemical substance/The level of expressed mRNA in the absence of chemical substance", "setting": "yeast gene YDL072C, cultured two hours with substance", "result": 2.8}, {"measurement": "The level of expressed mRNA in the presence of chemical substance/The level of expressed mRNA in the absence of chemical substance", "setting": "yeast gene YDL110C, cultured two hours with substance", "result": 4.4}, {"measurement": "The level of expressed mRNA in the presence of chemical substance/The level of expressed mRNA in the absence of chemical substance", "setting": "yeast gene YDL204W, cultured two hours with substance", "result": 2.7}, {"measurement": "The level of expressed mRNA in the presence of chemical substance/The level of expressed mRNA in the absence of chemical substance", "setting": "yeast gene YDL222C, cultured two hours with substance", "result": 1.3}, {"measurement": "The level of expressed mRNA in the presence of chemical substance/The level of expressed mRNA in the absence of chemical substance", "setting": "yeast gene YDR018C, cultured two hours with substance", "result": 1.2}, {"measurement": "The level of expressed mRNA in the presence of chemical substance/The level of expressed mRNA in the absence of chemical substance", "setting": "yeast gene YDR031W, cultured two hours with substance", "result": 2.5}, {"measurement": "The level of expressed mRNA in the presence of chemical substance/The level of expressed mRNA in the absence of chemical substance", "setting": "yeast gene YDR070C, cultured two hours with substance", "result": 3.1}, {"measurement": "The level of expressed mRNA in the presence of chemical substance/The level of expressed mRNA in the absence of chemical substance", "setting": "yeast gene YDR330W, cultured two hours with substance", "result": 1.3}, {"measurement": "The level of expressed mRNA in the presence of chemical substance/The level of expressed mRNA in the absence of chemical substance", "setting": "yeast gene YDR350C, cultured two hours with substance", "result": 1.2}, {"measurement": "The level of expressed mRNA in the presence of chemical substance/The level of expressed mRNA in the absence of chemical substance", "setting": "yeast gene YDR391C, cultured two hours with substance", "result": 2.4}, {"measurement": "The level of expressed mRNA in the presence of chemical substance/The level of expressed mRNA in the absence of chemical substance", "setting": "yeast gene YDR411C, cultured two hours with substance", "result": 1.3}, {"measurement": "The level of expressed mRNA in the presence of chemical substance/The level of expressed mRNA in the absence of chemical substance", "setting": "yeast gene YDR482C, cultured two hours with substance", "result": 1.2}, {"measurement": "The level of expressed mRNA in the presence of chemical substance/The level of expressed mRNA in the absence of chemical substance", "setting": "yeast gene YDR486C, cultured two hours with substance", "result": 1.7}, {"measurement": "The level of expressed mRNA in the presence of chemical substance/The level of expressed mRNA in the absence of chemical substance", "setting": "yeast gene YDR511W, cultured two hours with substance", "result": 1.5}, {"measurement": "The level of expressed mRNA in the presence of chemical substance/The level of expressed mRNA in the absence of chemical substance", "setting": "yeast gene YDR531W, cultured two hours with substance", "result": 1.2}, {"measurement": "The level of expressed mRNA in the presence of chemical substance/The level of expressed mRNA in the absence of chemical substance", "setting": "yeast gene YDR545W, cultured two hours with substance", "result": 0.9}, {"measurement": "The level of expressed mRNA in the presence of chemical substance/The level of expressed mRNA in the absence of chemical substance", "setting": "yeast gene YEL001C, cultured two hours with substance", "result": 1.3}, {"measurement": "The level of expressed mRNA in the presence of chemical substance/The level of expressed mRNA in the absence of chemical substance", "setting": "yeast gene YER004W, cultured two hours with substance", "result": 1.2}, {"measurement": "The level of expressed mRNA in the presence of chemical substance/The level of expressed mRNA in the absence of chemical substance", "setting": "yeast gene YER035W, cultured two hours with substance", "result": 2.1}, {"measurement": "The level of expressed mRNA in the presence of chemical substance/The level of expressed mRNA in the absence of chemical substance", "setting": "yeast gene YER038C, cultured two hours with substance", "result": 1.4}, {"measurement": "The level of expressed mRNA in the presence of chemical substance/The level of expressed mRNA in the absence of chemical substance", "setting": "yeast gene YER079W, cultured two hours with substance", "result": 1.6}, {"measurement": "The level of expressed mRNA in the presence of chemical substance/The level of expressed mRNA in the absence of chemical substance", "setting": "yeast gene YER106W, cultured two hours with substance", "result": 0.8}, {"measurement": "The level of expressed mRNA in the presence of chemical substance/The level of expressed mRNA in the absence of chemical substance", "setting": "yeast gene YER158C, cultured two hours with substance", "result": 1.2}, {"measurement": "The level of expressed mRNA in the presence of chemical substance/The level of expressed mRNA in the absence of chemical substance", "setting": "yeast gene YER163C, cultured two hours with substance", "result": 1.2}, {"measurement": "The level of expressed mRNA in the presence of chemical substance/The level of expressed mRNA in the absence of chemical substance", "setting": "yeast gene YER175C, cultured two hours with substance", "result": 1.2}, {"measurement": "The level of expressed mRNA in the presence of chemical substance/The level of expressed mRNA in the absence of chemical substance", "setting": "yeast gene YFL006W, cultured two hours with substance", "result": 0.8}, {"measurement": "The level of expressed mRNA in the presence of chemical substance/The level of expressed mRNA in the absence of chemical substance", "setting": "yeast gene YFL010C, cultured two hours with substance", "result": 1.6}, {"measurement": "The level of expressed mRNA in the presence of chemical substance/The level of expressed mRNA in the absence of chemical substance", "setting": "yeast gene YFL014W, DNA repair protein genes, cultured two hours with substance", "result": 8.8}, {"measurement": "The level of expressed mRNA in the presence of chemical substance/The level of expressed mRNA in the absence of chemical substance", "setting": "yeast gene YFL024C, cultured two hours with substance", "result": 0.8}]}
